Measurements: the NIST ThermoML archive (doi:10.1021/je9007553)
“And” between values parts separate entries of the source, which are not always exact repeats. Identical values can stand only once. Numbers after ± are expanded uncertainties.

Conditions: Crystal, Calculated from knudsen effusion weight loss

[Br][Al]([Br])[Br] [aluminum bromide]
vapor or sublimation pressure (301 K): 0.00013 ± 1e-05 kPa | vapor or sublimation pressure (303 K): 0.00018 ± 1e-05 kPa | vapor or sublimation pressure (306 K): 0.00024 ± 1e-05 kPa | vapor or sublimation pressure (307 K): 0.00035 ± 2e-05 kPa and 0.00034 ± 2e-05 kPa | vapor or sublimation pressure (309 K): 0.00043 ± 2e-05 kPa and 0.00035 ± 2e-05 kPa | vapor or sublimation pressure (310 K): 0.00045 ± 2e-05 kPa | vapor or sublimation pressure (312 K): 0.00049 ± 3e-05 kPa and 0.00056 ± 3e-05 kPa and 0.00046 ± 2e-05 kPa | vapor or sublimation pressure (312.5 K): 0.00054 ± 3e-05 kPa | vapor or sublimation pressure (314 K): 0.00062 ± 3e-05 kPa | vapor or sublimation pressure (314.5 K): 0.00071 ± 4e-05 kPa | vapor or sublimation pressure (315 K): 0.00072 ± 4e-05 kPa and 0.00068 ± 3e-05 kPa | vapor or sublimation pressure (315.5 K): 0.00085 ± 4e-05 kPa | vapor or sublimation pressure (316 K): 0.00071 ± 4e-05 kPa | vapor or sublimation pressure (316.5 K): 0.00089 ± 5e-05 kPa | vapor or sublimation pressure (317 K): 0.00095 ± 5e-05 kPa and 0.00083 ± 4e-05 kPa | vapor or sublimation pressure (317.5 K): 0.00089 ± 4e-05 kPa | vapor or sublimation pressure (318 K): 0.00089 ± 4e-05 kPa | vapor or sublimation pressure (318.5 K): 0.00107 ± 0.00011 kPa and 0.00102 ± 0.0001 kPa and 0.00112 ± 0.00011 kPa | vapor or sublimation pressure (320 K): 0.00107 ± 0.00011 kPa and 0.00123 ± 0.00013 kPa | vapor or sublimation pressure (320.5 K): 0.00123 ± 0.00013 kPa | vapor or sublimation pressure (321 K): 0.00135 ± 0.00014 kPa | vapor or sublimation pressure (321.5 K): 0.00141 ± 0.00015 kPa | vapor or sublimation pressure (323 K): 0.00166 ± 0.00018 kPa [middle of 4 runs] | vapor or sublimation pressure (324 K): 0.0017 ± 0.00019 kPa and 0.00178 ± 0.0002 kPa | vapor or sublimation pressure (324.5 K): 0.00191 ± 0.00022 kPa | vapor or sublimation pressure (325 K): 0.00209 ± 0.00024 kPa | vapor or sublimation pressure (326 K): 0.00204 ± 0.00024 kPa and 0.00214 ± 0.00025 kPa | vapor or sublimation pressure (327 K): 0.0024 ± 0.00029 kPa and 0.00282 ± 0.00035 kPa | vapor or sublimation pressure (327.5 K): 0.00234 ± 0.00028 kPa | vapor or sublimation pressure (328 K): 0.00269 ± 0.00033 kPa and 0.00251 ± 0.0003 kPa | vapor or sublimation pressure (330 K): 0.00363 ± 0.00046 kPa and 0.00324 ± 0.00041 kPa | vapor or sublimation pressure (330.5 K): 0.00309 ± 0.00038 kPa | vapor or sublimation pressure (331 K): 0.00389 ± 0.0005 kPa | vapor or sublimation pressure (332.5 K): 0.00468 ± 0.00062 kPa | vapor or sublimation pressure (333 K): 0.00457 ± 0.00061 kPa and 0.00398 ± 0.00052 kPa | vapor or sublimation pressure (333.5 K): 0.00437 ± 0.00058 kPa | vapor or sublimation pressure (335 K): 0.00575 ± 0.00079 kPa | vapor or sublimation pressure (336 K): 0.00575 ± 0.00079 kPa and 0.00617 ± 0.00086 kPa and 0.00562 ± 0.00077 kPa | vapor or sublimation pressure (337 K): 0.00724 ± 0.001 kPa | vapor or sublimation pressure (338 K): 0.00741 ± 0.0011 kPa and 0.00794 ± 0.0011 kPa | vapor or sublimation pressure (340 K): 0.00933 ± 0.0014 kPa and 0.00813 ± 0.0012 kPa | vapor or sublimation pressure (343 K): 0.01259 ± 0.0019 kPa | vapor or sublimation pressure (344 K): 0.01288 ± 0.002 kPa | vapor or sublimation pressure (345 K): 0.01479 ± 0.0023 kPa | vapor or sublimation pressure (348 K): 0.0195 ± 0.0032 kPa | vapor or sublimation pressure (351 K): 0.02512 ± 0.0043 kPa

[I][Al]([I])[I] [aluminum iodide]
vapor or sublimation pressure (359.5 K): 7e-05 ± 1e-05 kPa | vapor or sublimation pressure (361 K): 0.0001 ± 1e-05 kPa | vapor or sublimation pressure (364 K): 0.00014 ± 1e-05 kPa | vapor or sublimation pressure (365 K): 0.00019 ± 1e-05 kPa and 0.00014 ± 1e-05 kPa | vapor or sublimation pressure (366.5 K): 0.00017 ± 1e-05 kPa | vapor or sublimation pressure (367.5 K): 0.00019 ± 1e-05 kPa | vapor or sublimation pressure (368 K): 0.00019 ± 1e-05 kPa and 0.00025 ± 1e-05 kPa | vapor or sublimation pressure (368.5 K): 0.00025 ± 1e-05 kPa | vapor or sublimation pressure (369.5 K): 0.00025 ± 1e-05 kPa | vapor or sublimation pressure (371.5 K): 0.00027 ± 1e-05 kPa | vapor or sublimation pressure (372 K): 0.0003 ± 2e-05 kPa and 0.00034 ± 2e-05 kPa | vapor or sublimation pressure (372.5 K): 0.00034 ± 2e-05 kPa | vapor or sublimation pressure (374.5 K): 0.00049 ± 3e-05 kPa and 0.00039 ± 2e-05 kPa and 0.00036 ± 2e-05 kPa | vapor or sublimation pressure (375.5 K): 0.00044 ± 2e-05 kPa | vapor or sublimation pressure (376 K): 0.00042 ± 2e-05 kPa and 0.00049 ± 3e-05 kPa | vapor or sublimation pressure (377 K): 0.00059 ± 3e-05 kPa and 0.00049 ± 3e-05 kPa | vapor or sublimation pressure (378 K): 0.00054 ± 3e-05 kPa | vapor or sublimation pressure (378.5 K): 0.00059 ± 3e-05 kPa and 0.00063 ± 3e-05 kPa | vapor or sublimation pressure (380 K): 0.00068 ± 3e-05 kPa and 0.00071 ± 4e-05 kPa | vapor or sublimation pressure (380.5 K): 0.00083 ± 4e-05 kPa and 0.00078 ± 4e-05 kPa | vapor or sublimation pressure (381 K): 0.00078 ± 4e-05 kPa | vapor or sublimation pressure (382 K): 0.00083 ± 4e-05 kPa | vapor or sublimation pressure (383 K): 0.00093 ± 5e-05 kPa | vapor or sublimation pressure (383.5 K): 0.00087 ± 4e-05 kPa | vapor or sublimation pressure (385 K): 0.00126 ± 0.00013 kPa and 0.00102 ± 0.0001 kPa | vapor or sublimation pressure (385.5 K): 0.00112 ± 0.00011 kPa | vapor or sublimation pressure (387 K): 0.00135 ± 0.00014 kPa | vapor or sublimation pressure (388 K): 0.00135 ± 0.00014 kPa | vapor or sublimation pressure (389 K): 0.00186 ± 0.00021 kPa | vapor or sublimation pressure (390 K): 0.0017 ± 0.00019 kPa and 0.00182 ± 0.00021 kPa and 0.00174 ± 0.0002 kPa | vapor or sublimation pressure (391 K): 0.0017 ± 0.00019 kPa and 0.00209 ± 0.00024 kPa | vapor or sublimation pressure (393 K): 0.00245 ± 0.00029 kPa | vapor or sublimation pressure (393.5 K): 0.00214 ± 0.00025 kPa and 0.00234 ± 0.00028 kPa | vapor or sublimation pressure (394 K): 0.00257 ± 0.00031 kPa | vapor or sublimation pressure (395 K): 0.00251 ± 0.0003 kPa and 0.00282 ± 0.00035 kPa | vapor or sublimation pressure (396.5 K): 0.00295 ± 0.00036 kPa | vapor or sublimation pressure (397 K): 0.00324 ± 0.00041 kPa | vapor or sublimation pressure (397.5 K): 0.00363 ± 0.00046 kPa | vapor or sublimation pressure (398 K): 0.00347 ± 0.00044 kPa and 0.00339 ± 0.00043 kPa | vapor or sublimation pressure (399 K): 0.0038 ± 0.00049 kPa | vapor or sublimation pressure (399.5 K): 0.00407 ± 0.00053 kPa and 0.00417 ± 0.00055 kPa | vapor or sublimation pressure (400 K): 0.00417 ± 0.00055 kPa | vapor or sublimation pressure (401 K): 0.00437 ± 0.00058 kPa | vapor or sublimation pressure (402 K): 0.00537 ± 0.00073 kPa and 0.00501 ± 0.00068 kPa | vapor or sublimation pressure (403 K): 0.00525 ± 0.00071 kPa | vapor or sublimation pressure (403.5 K): 0.00562 ± 0.00077 kPa and 0.0055 ± 0.00075 kPa | vapor or sublimation pressure (404.5 K): 0.00562 ± 0.00077 kPa | vapor or sublimation pressure (405 K): 0.00603 ± 0.00084 kPa and 0.00661 ± 0.00093 kPa | vapor or sublimation pressure (406 K): 0.00759 ± 0.0011 kPa | vapor or sublimation pressure (407 K): 0.00759 ± 0.0011 kPa | vapor or sublimation pressure (408 K): 0.00776 ± 0.0011 kPa and 0.00794 ± 0.0011 kPa | vapor or sublimation pressure (408.5 K): 0.00871 ± 0.0013 kPa | vapor or sublimation pressure (409 K): 0.00933 ± 0.0014 kPa | vapor or sublimation pressure (409.5 K): 0.00832 ± 0.0012 kPa | vapor or sublimation pressure (411 K): 0.01047 ± 0.0016 kPa and 0.01023 ± 0.0015 kPa | vapor or sublimation pressure (412 K): 0.01175 ± 0.0018 kPa and 0.01096 ± 0.0017 kPa | vapor or sublimation pressure (413 K): 0.01288 ± 0.002 kPa and 0.01148 ± 0.0018 kPa | vapor or sublimation pressure (414.5 K): 0.01413 ± 0.0022 kPa | vapor or sublimation pressure (415 K): 0.01479 ± 0.0023 kPa and 0.01445 ± 0.0023 kPa | vapor or sublimation pressure (416 K): 0.01549 ± 0.0025 kPa and 0.01585 ± 0.0025 kPa | vapor or sublimation pressure (417 K): 0.0166 ± 0.0027 kPa | vapor or sublimation pressure (417.5 K): 0.0182 ± 0.003 kPa | vapor or sublimation pressure (419.5 K): 0.02188 ± 0.0037 kPa
